Reference: US20230250095A1, “BENZIMIDAZOLE DERIVATIVES, PREPARATION METHOD THEREFOR AND MEDICAL USE THEREOF” (TUOJIE BIOTECH(SHANGHAI) CO., LTD., priority 2020, published 2023)

Assays:
[1] = In vitro metabolic stability in human hepatocytes; format: in vitro ADME; conditions: human hepatocytes 1×10^6 cells/mL, 37° C., up to 120 min; read-out: Intrinsic clearance (uL/min/10^6 cells)
Protocol: The concentrations of the test compounds in the reaction system were determined by LC/MS/MS, so that the intrinsic clearance of the test compounds was calculated, and the in vitro metabolic stability in human hepatocytes was evaluated.
247.5 μL of a mixed solution of human hepatocytes at 1×10^6 cells/mL (purchased from BioreclamationIVT, Cat. No. S01205) and 2.5 μL of 100 μM test compound or positive control was added to a plate to initiate the reaction. The plate was incubated at 37° C. and 600 rpm. 20 μL of incubation system was transferred to a stop plate at 0.5 min, 5 min, 15 min, 30 min, 45 min, 60 min, 80 min, 100 min and 120 min. Then, the mixture was vortexed for 2 min to be mixed well. The stop plate was centrifuged at 4000 rpm for 20 min. 40 μL of supernatant of each compound was transferred to a 96-well sample template, after which 160 μL of pure water was added to dilute the samples.
The resulting samples were quantified from ion chromatogram. The residual rate was calculated from the peak area of the test compound or the positive control. Slope k was determined by linear regression of the […] of residual rates versus incubation time using Microsoft Excel.
Intrinsic clearance (in vitro CLint, μL/min/10^6 cells) was calculated from the slope value according to the following equation:
V=incubation volume (0.25 mL);
N=number of cells per well (0.25×10^6 cells)

[2] = In vivo pharmacokinetic experiment in rats, intragastric administration; conditions: SD rats, 5 mg/kg
Protocol: The drug concentrations in the plasma of the test animals (rats) at different time points after intragastric administration of the compound of the present disclosure were determined by an LC/MS/MS method. The pharmacokinetic behavior in rats of the compound of the present disclosure was studied and its pharmacokinetic profile was evaluated.
Male, healthy SD rats of SPF grade, 6-8 weeks old, 3 rats in each group.
Intragastric administration: a certain amount of compound was weighed and prepared into a 1 mg/mL white suspension by adding 0.5% by volume of hydroxypropyl methylcellulose, 0.1% by volume of tween 80 and 99.4% by volume of water.
SD rats were administered intragastrically with compound 4 or BLU-5937 at a dose of 5 mg/kg after fasting overnight.
Rats were administered intragastrically with the compound of the present disclosure. 0.2 mL of blood was collected from the jugular vein at 0.25 h, 0.5 h, 1 h, 2 h, 4 h, 8 h and 24 h after the administration, placed in a tube containing EDTA-K2, separated by centrifugation at 4° C. at 4000 rpm for 5 min to obtain plasma, which was stored at −75° C.
Determination of the content of the test compounds at different concentrations in the plasma of rats after intragastric administration: 50 μL of rat plasma at each time point after the administration was taken, 200 μL of a solution of internal standard dexamethasone (50 ng/mL) in acetonitrile was added thereto, and the mixture was vortexed for 30 s to be mixed well, centrifuged at 4° C. at 4700 rpm for 15 min. The supernatant of the plasma sample was subjected to 3-fold dilution with water, and 2.0 μL of the dilution was taken for LC/MS/MS analysis.

[3] = Caco-2 permeability assay; format: in vitro ADME; conditions: human
Protocol: The apparent permeability coefficient (Papp) of the analytical drug was determined by liquid chromatography-tandem mass spectrometry (LC/MS/MS) through a Caco-2 cell model.
The transfer rate of drug from the apical end to the basal end was determined. 108 μL of HBSS (25 mM HEPES, pH 7.4) containing 10 μM test compound was added to the apical end of the upper chamber of Transwell (purchased from Corning) containing Caco-2 cells (purchased from ATCC) at a density of 6.86×10^5 cells/cm^2, and meanwhile, 8 μL of the sample was added, as an initial dosing-end sample (A-B), to a new 96-well plate to which 72 μL of HBSS (25 mM HEPES, pH 7.4) and 240 μL of acetonitrile (containing 100 nM alprazolam, 200 nM caffeine and 100 nM tolbutamide) had been added, and the plate was vortexed at 1000 rpm for 10 min. 300 μL of HBSS (25 mM HEPES, pH 7.4) was added to the basal end.
The transfer rate of drug from the basal end to the apical end was determined. 308 μL of HBSS (25 mM HEPES, pH 7.4) containing 10 μM test compound was added to wells of the basal end of the plate, and meanwhile, 8 μL of the sample was added, as an initial dosing-end sample (B-A), to a new 96-well plate to which 72 μL of HBSS (25 mM HEPES, pH 7.4) and 240 μL of acetonitrile (containing 100 nM alprazolam, 200 nM caffeine and 100 nM tolbutamide) had been added. The plate was vortexed at 1000 rpm for 10 min, and 100 μL of HBSS (25 mM HEPES, pH 7.4) was added to the apical end.
The transfer rate from the apical end to the basal end and the transfer rate from the basal end to the apical end need to be determined simultaneously.
At the end of the transfer cycle, 8 μL of the sample was taken from the dosing end (apical end of A-B flow and basal end of B-A flow) and added to 72 μL of HBSS (25 mM HEPES, pH 7.4) and 240 μL of acetonitrile (containing 100 nM alprazolam, 200 nM caffeine and 100 nM tolbutamide), and the mixture was added to a new 96-well plate. 80 μL of the liquid was taken directly from each of the basal end of the A-B flow and the apical end of the B-A flow, and added together with 240 μL of acetonitrile (containing 100 nM alprazolam, 200 nM caffeine and 100 nM tolbutamide) to a new 96-well plate. The plates were vortexed at 1000 rpm for 10 min. The samples were centrifuged at 4000 rpm for 30 min. 100 μL of the supernatant was transferred to a new 96-well plate. All samples were analyzed by LC-MS/MS with 100 μL of pure water.
Data were calculated using Microsoft Excel and peak areas were calculated from the chromatograms. The apparent permeability coefficient (Papp) is in cm/s and is calculated using the following formula: […]
Papp is apparent permeability (cm/s×10^−6);
The outflow ratio can be determined by the following equation: […]

hepatocyte CLint at 1 μM [1] [µL/min/1e6 cells] | SMILES | other results
4.08 | CC(=O)N1CCO[C@@H](Cn2c(-c3ccc(N4CCCC4=O)cc3Cl)nc3cc(C)ccc32)C1 [Compound 3, (S)-1-(4-(1-((4-acetylmorpholin-2-yl)methyl)-5-methyl-1H-benzo[d]imidazol-2-yl)-3-chlorophenyl)pyrrolidin-2-one] | 
< 1 | CC(=O)N1CCO[C@@H](Cn2c(-c3c(F)cc(N4CCCC4=O)cc3Cl)nc3cc(C)ccc32)C1 [Compound 4, (S)-1-(4-(1-((4-acetylmorpholin-2-yl)methyl)-5-methyl-1H-benzo[d]imidazol-2-yl)-3-chloro-5-fluorophenyl)pyrrolidin-2-one] | V [2]: 2.05 L/kg; Tmax ([2]; male, rat, plasma, po): 25.2 min; half-life ([2]; male, rat, plasma, po): 57.6 min; AUC(0-t) ([2]; male, rat, po, plasma): 408 ng·h/mL; Cmax ([2]; male, rat, po, plasma): 356 ng/mL; Papp A→B at 10 μM ([3]; Caco-2, 10 μM test compound, apical to basal, pH 7.4): 8.1 ×10⁻⁶ cm/s; efflux ratio at 10 μM ([3]; Caco-2, Papp (B-A)/Papp (A-B), read-out: Outflow ratio): 3.8

The remaining lines, values behind:

SMILES | hepatocyte CLint at 1 μM [1] [µL/min/1e6 cells] | other results
CC(=O)N1CCOC(Cn2c(-c3c(F)cc(N4CCCC4=O)cc3F)nc3cc(C)ccc32)C1 (stereo in doubt) [Compound 1] | < 1 | 
COC(=O)N1CCOC(Cn2c(-c3c(F)cc(N4CCCC4=O)cc3F)nc3cc(C)ccc32)C1 (centres unmarked) [Compound 2, Methyl 2-((2-(2,6-difluoro-4-(2-carbonylpyrrolidin-1-yl)phenyl)-5-methyl-1H-benzo[d]imidazol-1-yl)methyl)morpholine-4-carboxylate] | 2.98 | 
COC(=O)N1CCO[C@@H](Cc2c(-c3c(F)cc(N4CCCC4=O)cc3F)nc3cc(C)ccn23)C1 [Compound 9, Methyl (S)-2-((2-(2,6-difluoro-4-(2-carbonylpyrrolidin-1-yl)phenyl)-7-methylimidazo[1,2-a]pyridin-3-yl)methyl)morpholine-4-carboxylate] | 3.86 | 
CC(=O)N1CCO[C@@H](Cn2c(-c3c(F)cc(N4CCCC4=O)cc3F)nc3cc(Cl)ccc32)C1 [Compound 10, (S)-1-(4-(1-((4-acetylmorpholin-2-yl)methyl)-5-chloro-1H-benzo[d]imidazol-2-yl)-3,5-difluorophenyl)pyrrolidin-2-one] | < 1 | 
[2H]C([2H])([2H])c1ccc2c(c1)nc(-c1c(F)cc(N3CCCC3=O)cc1F)n2C[C@H]1CN(C(C)=O)CCO1 [Compound 14, (S)-1-(4-(1-((4-acetylmorpholin-2-yl)methyl)-5-(methyl-d3)-1H-benzo[d]imidazol-2-yl)-3,5-difluorophenyl)pyrrolidin-2-one] | < 1 | 
